From patent US20080200532A1 (Teva Pharmaceuticals USA, Inc. for Barbados, priority 2003, published 2008)

Tests used:
[1] = according to the '340 patent; cited from earlier work
[2] = Stability studies, appearance after storage; assay type: physicochemical; details: storage at 40 EC for three months
[3] = Stability study of Form XIV, polymorph content by X-Ray Powder Diffraction analysis; assay type: physicochemical
Description: [table] Powder X-ray diffraction data were obtained using methods known in the art on a […] powder X-ray diffractometer model X'TRA equipped with a solid state detector. Copper radiation of 1.5418 Å was used. A round aluminum sample holder with zero background was used.

SMILES: CC(C)n1c(/C=C/[C@@H](O)C[C@@H](O)CC(=O)O)c(-c2ccc(F)cc2)c2ccccc21 (racemic) [Form B, fluvastatin sodium]
- Hygroscopicity [1]: low hygroscopicity

SMILES: CC(C)n1c(/C=C/[C@@H](O)C[C@@H](O)CC(=O)O)c(-c2ccc(F)cc2)c2ccccc21 (relative stereo) [Form XIV, [R*,S*-(E)]-(±)-7-[3-(4-fluorophenyl)-1-(1-methylethyl)-1H-indol-2-yl]-3,5-dihydroxy-6-heptenoic acid monosodium]
- Change of appearance (white to pale yellow powder) after storage [2]: does not change
- Polymorph content by X-Ray Powder Diffraction analysis ([3]; 25° C., 60% RH, 1 M): XIV
- Polymorph content by X-Ray Powder Diffraction analysis ([3]; 25° C., 60% RH, 2 M): XIV
- Polymorph content by X-Ray Powder Diffraction analysis ([3]; 25° C., 60% RH, 3 M): XIV
- Polymorph content by X-Ray Powder Diffraction analysis ([3]; 40° C., 75% RH, 1 M): XIV
- Polymorph content by X-Ray Powder Diffraction analysis ([3]; 40° C., 75% RH, 2 M): XIV
- Polymorph content by X-Ray Powder Diffraction analysis ([3]; 40° C., 75% RH, 3 M): XIV
- Polymorph content by X-Ray Powder Diffraction analysis ([3]; 55° C., 1 M): XIV
- Polymorph content by X-Ray Powder Diffraction analysis ([3]; 55° C., 2 M): XIV
- Polymorph content by X-Ray Powder Diffraction analysis ([3]; 55° C., 3 M): XIV
- Transformation into Form B upon storage ([3]; storage at 25, 40 and 55° C., for at least 3 months): no more than 5%
- Polymorph content by X-Ray Powder Diffraction analysis ([3]; t = 0): XIV
